Results taken from the RepoRT retention time repository.

Assay: RP, Advanced Chromatography Technologies ACE C18, 50 × 2.1 mm, 3 µm; A: water + 10 mM ammonium acetate; B: acetonitrile; gradient (min/%B) 0/5 1/5 21/95
Conditions: stereoisomer not certain

Row | Compound | LC retention time [min]
1 | Nc1c(Cl)cc([N+](=O)[O-])cc1[N+](=O)[O-] [6-chloro-2-4-dinitroaniline] | 8.9
2 | c1ccc2scnc2c1 [Benzothiazole] | 5.38
3 | CC(C)(c1ccccc1)c1cc(-n2nc3ccccc3n2)c(O)c(C(C)(C)c2ccccc2)c1 | 19.4
4 | c1ccc2sc(SSc3nc4ccccc4s3)nc2c1 [2-2'-dithiobisbenzothiazole] | 14.6
5 | CC(C)(C)c1cc(-n2nc3ccc(Cl)cc3n2)c(O)c(C(C)(C)C)c1 [2-4-di-tert-butyl-6-(5-chlorobenzotriazol-2-yl)phenol] | 20.7
6 | Nc1c(Br)cc([N+](=O)[O-])cc1[N+](=O)[O-] [2-bromo-4,6-dinitroaniline] | 8.73
7 | Nc1ccc([N+](=O)[O-])cc1[N+](=O)[O-] [2-4-dinitroaniline] | 7.02
8 | Cc1ccc(O)c(-n2nc3ccccc3n2)c1 [2-(benzotriazol-2-yl)-4-methylphenol] | 13.3
9 | Cc1cc2n[nH]nc2cc1C [5-6-Dimethyl-2H-benzotriazole] | 5.73
10 | c1ccc2n[nH]nc2c1 [1-H-benzotriazole] | 3.14
11 | Nc1c(Cl)cc([N+](=O)[O-])cc1Cl [2,6-dichloro-4-nitroaniline] | 9.41
12 | CSc1nc2ccccc2s1 [2-methylthiobenzothiazole] | 9.58
13 | c1ccc2sc(SNC3CCCCC3)nc2c1 [N-cyclohexyl-2-benzothiazolesulphenamide] | 13.7
14 | c1ccc2ncccc2c1 [Quinoline] | 6.1
15 | CC(C)COC(=O)c1ccccc1C(=O)OCC(C)C [Diisobutyl phthalate] | 14
16 | CCC(C)(C)c1cc(-n2nc3ccccc3n2)c(O)c(C(C)(C)CC)c1 [2-(2H-benzotriazol-2-yl)-4-6-di-tert-pentylphenol] | 20.8
17 | Cc1ccc2n[nH]nc2c1 [5-Methyl-1H-benzotriazole] | 4.65
